# Laboratory results as given in patent US20260191838A1, “COMBINATIONS COMPRISING A MENIN-MLL INHIBITOR AND A BCL-2 INHIBITOR” (JANSSEN PHARMACEUTICA NV, priority 2022, published 2026).
# What was measured:
# OCI-AML3 cells [1] = test: In vitro proliferation (Cell Titer Glo), Compound 51 with decitabine and venetoclax, OCI-AML3; type: cell-based, human; parameters: Effect size (BIGL, HSA null model): scale not given here
# Protocol: 3a) In Vitro Proliferation—Menin-MLL Inhibitor in Combination with a DNA Hypomethylating Agent (Decitabine) and a BCL2 Inhibitor (Venetoclax)
# The effect of Compound 51 in combination with decitabine and venetoclax was determined in proliferation assays.
# AML cell lines MOLM-13, OCI-AML3 and MV4-11 were purchased from DSMZ. MOLM-13 were grown in RPMI medium supplemented with 10% Fetal Bovine Serum (FBS) and 1% penicillin/streptomycin. MV4-11 cells were grown in IMDM medium supplemented with 10% FBS and 1% penicillin/streptomycin. OCI-AML3 cells were cultured in 80-90% alpha-MEM (without ribo- and deoxyribonucleosides)+10-20% FBS. All cell lines were cultured at 37° C. in 5% CO2 atmosphere.
# AML cell lines (10×10^3 cells/well) were seeded in 96-well plates and grown for 6 days in serum (10%)-containing medium in the presence or absence of inhibitors at the indicated concentrations. Proliferation was analyzed by means of a Cell Titer Glo assay using the CellTiter 96 Aqueous One Solution Cell Proliferation Assay (Promega, Madison, WI, USA), according to the manufacturer's instructions. Data are mean with standard deviation from two to four independent experiments in technical triplicates.
# R-based Biochemically Intuitive Generalized Loewe (BIGL) model implemented with a highest single agent (HSA) null model. Specifically, the BIGL methodology was applied to calculate drug-drug interactions (Van der Borght, K., Tourny, A., Bagdziunas, R. et al. BIGL: Biochemically Intuitive Generalized Loewe null model for prediction of the expected combined effect compatible with partial agonism and antagonism. Sci Rep 7, 17935 (2017); Thas, O., Tourny, A., Verbist, B., Hawinkel, S., Nazarov, M., Mutambanengwe, K., & Bijnens, L. Statistical detection of synergy: new methods and a comparative study. Pharmaceutical Statistics (2021)).
# Synergy matrix results of the BIGL analysis of the cell line data with HSA as mean model calculated on the basis of the cellular metabolic activity using Cell Titer-Glo assay. Bootstrap confidence intervals are indicated. Effect sizes and their confidence intervals are shown. […] No significant average effect if zero is included in the interval.
# OCI-AML3 cells [2] = test: Proliferation (spheroid) assay, OCI-AML3; type: cell-based; conditions: Homo sapiens, OCI-AML-3, 192 h; 8 days; read-out: spheroid assay_OCI-AML3 IC50
# Protocol: The anti-proliferative effect of menin/MLL protein/protein interaction inhibitor test compounds was assessed in human leukemia cell lines. The cell line MOLM14 harbors a MLL translocation and expresses the MLL fusion protein MLL-AF9, respectively, as well as the wildtype protein from the second allele. OCI-AML3 cells that carry the NPM1c gene mutation were also tested. […] KO-52 was used as a control cell line containing two MLL (KMT2A) wildtype alleles in order to exclude compounds that display general cytotoxic effects.
# MOLM14 cells were cultured in RPMI-1640 (Sigma Aldrich) supplemented with 10% heat-inactivated fetal bovine serum (HyClone), 2 mM L-glutamine (Sigma Aldrich) and 50 μg/ml gentamycin (Gibco). KO-52 and OCI-AML3 cell lines were propagated in alpha-MEM (Sigma Aldrich) supplemented with 20% heat-inactivated fetal bovine serum (HyClone), 2 mM L-glutamine (Sigma Aldrich) and 50 μg/ml gentamycin (Gibco).
# In order to assess the anti-proliferative effects, 200 MOLM14 cells, 200° C. […] Spheroid like growth was measured in real-time by live-cell imaging (IncuCyteZOOM, Essenbio, 4× objective) acquiring images at day 8. Confluence (%) as a measure of spheroid size was determined using an integrated analysis tool.
# In order to determine the effect of the test compounds over time, the confluence in each well as a measure of spheroid size, was calculated. […]
smiles,measurement,setting,value
CC(=O)N1CCC(CN2CC[C@@H](Cc3cn(-c4ccc(F)cc4C(=O)N(C)C(C)C)c4cncc(C)c34)C2)CC1 [Compound 51],"Effect size (BIGL, HSA null model)","OCI-AML3 cells [1]; Compound 51 0.001 μM, Decitabine 0.0015 μM, Venetoclax 0.0001 μM",−0.03
same,"Effect size (BIGL, HSA null model)","OCI-AML3 cells [1]; Compound 51 0.001 μM, Decitabine 0.015 μM, Venetoclax 0.001 μM",−0.1
same,"Effect size (BIGL, HSA null model)","OCI-AML3 cells [1]; Compound 51 0.001 μM, Decitabine 0.15 μM, Venetoclax 0.002 μM",−0.05
same,"Effect size (BIGL, HSA null model)","OCI-AML3 cells [1]; Compound 51 0.001 μM, Decitabine 1.5 μM, Venetoclax 0.02 μM",0
same,"Effect size (BIGL, HSA null model)","OCI-AML3 cells [1]; Compound 51 0.001 μM, Decitabine 3 μM, Venetoclax 0.2 μM",0
same,"Effect size (BIGL, HSA null model)","OCI-AML3 cells [1]; Compound 51 0.01 μM, Decitabine 0.0015 μM, Venetoclax 0.0001 μM",−0.01
same,"Effect size (BIGL, HSA null model)","OCI-AML3 cells [1]; Compound 51 0.01 μM, Decitabine 0.015 μM, Venetoclax 0.001 μM",−0.31
same,"Effect size (BIGL, HSA null model)","OCI-AML3 cells [1]; Compound 51 0.01 μM, Decitabine 0.15 μM, Venetoclax 0.002 μM",−0.06
same,"Effect size (BIGL, HSA null model)","OCI-AML3 cells [1]; Compound 51 0.01 μM, Decitabine 1.5 μM, Venetoclax 0.02 μM",−0.01
same,"Effect size (BIGL, HSA null model)","OCI-AML3 cells [1]; Compound 51 0.01 μM, Decitabine 3 μM, Venetoclax 0.2 μM",0
same,"Effect size (BIGL, HSA null model)","OCI-AML3 cells [1]; Compound 51 0.05 μM, Decitabine 0.0015 μM, Venetoclax 0.0001 μM",0.02
same,"Effect size (BIGL, HSA null model)","OCI-AML3 cells [1]; Compound 51 0.05 μM, Decitabine 0.015 μM, Venetoclax 0.001 μM",0.01
same,"Effect size (BIGL, HSA null model)","OCI-AML3 cells [1]; Compound 51 0.05 μM, Decitabine 0.15 μM, Venetoclax 0.002 μM",−0.09
same,"Effect size (BIGL, HSA null model)","OCI-AML3 cells [1]; Compound 51 0.05 μM, Decitabine 1.5 μM, Venetoclax 0.02 μM",−0.01
same,"Effect size (BIGL, HSA null model)","OCI-AML3 cells [1]; Compound 51 0.05 μM, Decitabine 3 μM, Venetoclax 0.2 μM",0
same,"Effect size (BIGL, HSA null model)","OCI-AML3 cells [1]; Compound 51 0.1 μM, Decitabine 0.0015 μM, Venetoclax 0.0001 μM",0.03
same,"Effect size (BIGL, HSA null model)","OCI-AML3 cells [1]; Compound 51 0.1 μM, Decitabine 0.015 μM, Venetoclax 0.001 μM",0.09
same,"Effect size (BIGL, HSA null model)","OCI-AML3 cells [1]; Compound 51 0.1 μM, Decitabine 0.15 μM, Venetoclax 0.002 μM",−0.06
same,"Effect size (BIGL, HSA null model)","OCI-AML3 cells [1]; Compound 51 0.1 μM, Decitabine 1.5 μM, Venetoclax 0.02 μM",−0.01
same,"Effect size (BIGL, HSA null model)","OCI-AML3 cells [1]; Compound 51 0.1 μM, Decitabine 3 μM, Venetoclax 0.2 μM",0
same,"Effect size (BIGL, HSA null model)","OCI-AML3 cells [1]; Compound 51 0.5 μM, Decitabine 0.0015 μM, Venetoclax 0.0001 μM",0.03
same,"Effect size (BIGL, HSA null model)","OCI-AML3 cells [1]; Compound 51 0.5 μM, Decitabine 0.015 μM, Venetoclax 0.001 μM",0.12
same,"Effect size (BIGL, HSA null model)","OCI-AML3 cells [1]; Compound 51 0.5 μM, Decitabine 0.15 μM, Venetoclax 0.002 μM",0.01
same,"Effect size (BIGL, HSA null model)","OCI-AML3 cells [1]; Compound 51 0.5 μM, Decitabine 1.5 μM, Venetoclax 0.02 μM",−0.01
same,"Effect size (BIGL, HSA null model)","OCI-AML3 cells [1]; Compound 51 0.5 μM, Decitabine 3 μM, Venetoclax 0.2 μM",0
same,"Effect size (BIGL, HSA null model)","OCI-AML3 cells [1]; Compound 51 1 μM, Decitabine 0.0015 μM, Venetoclax 0.0001 μM",0.02
same,"Effect size (BIGL, HSA null model)","OCI-AML3 cells [1]; Compound 51 1 μM, Decitabine 0.015 μM, Venetoclax 0.001 μM",0.11
same,"Effect size (BIGL, HSA null model)","OCI-AML3 cells [1]; Compound 51 1 μM, Decitabine 0.15 μM, Venetoclax 0.002 μM",0
same,"Effect size (BIGL, HSA null model)","OCI-AML3 cells [1]; Compound 51 1 μM, Decitabine 1.5 μM, Venetoclax 0.02 μM",0
same,"Effect size (BIGL, HSA null model)","OCI-AML3 cells [1]; Compound 51 1 μM, Decitabine 3 μM, Venetoclax 0.2 μM",0.03
same,combination effect on proliferation (in words),"OCI-AML3 cells [1]; Compound 51 with Decitabine in the presence of Venetoclax, OCI-AML3 (NPM1c), 6-day CellTiter-Glo",not antagonistically cytotoxic
same,IC50,OCI-AML3 cells [2],24 nM
